These results are taken from patent US11154563B2, “Immunoproteasome inhibitors” (Principia Biopharma Inc., priority 2017, dated 2021).

What all share (type): biochemical
Assay [1] addresses immunoproteasome LMP7/B5i subunit (Homo sapiens, UniProt P20618+P28062). Put plainly: Caliper-based proteasome enzymatic activity assay, LMP7. Particulars: human recombinant immunoproteasome 0.3 nM, FAM-peptide substrate 1 μM, 3 h at rt. A digest of the protocol:
(§1)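 Recombinant human immunoproteasome or constitutive proteasome (0.3 nM) with 1 μM FAM-peptide in 20 mM Hepes pH 7.4, 0.015% SDS, 0.01% BSA; LMP7/β5c ran 3 h at rt and were stopped with 5 uM carfilzomib, LMP2 ran 2 h and was stopped with 6.7 uM ixazomib. Cleaved product quantified by microfluidic separation; IC50 from percent inhibition.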

In assay [2] the target is constitutive proteasome β5c unit (Homo sapiens, UniProt P20618+P28074). Put plainly: Caliper-based proteasome enzymatic activity assay, β5c. Particulars: human recombinant constitutive proteasome 0.3 nM, FAM-peptide substrate 1 μM, 3 h at rt; read-out: β5c subunit IC50. A digest of the protocol:
as §1

The target in assay [3] is immunoproteasome LPM2/β1i subunit (Homo sapiens, UniProt P28065+P40306). The assay can be described thus: Caliper-based proteasome enzymatic activity assay, LMP2. As to conditions: human recombinant immunoproteasome 0.3 nM, FAM-peptide substrate 1 μM, 2 h at rt. The method, then: A Caliper-based proteasome assay (Caliper Life Sciences, Hopkinton, Mass.) was used to measure inhibition of the immunoproteasome LMP7/B5i subunit, the immunoproteasome LPM2/β1i subunit, and the constitutive proteasome β5c unit for a compound of Formula (I). For LMP7 and β5c, serial dilutions of test compounds were incubated with either human recombinant immunoprotcasome or constitutive proteasome (0.3 nM enzyme) and a carboxyfluorescein (FAM)-labeled peptide substrate FAM-TYETFKSIMKKSPF-NH2 (1 μM) at it for 3 h. The reaction was then terminated with a buffer containing the known proteasome inhibitor carfilzomib at a concentration of 5 uM. For LMP2, serial dilutions of test compounds were incubated with human recombinant immunoproteasome proteasome (0.3 nM enzyme) and a carboxyfluorescein (FAM)-labeled peptide substrate FAM-[…]-NH2 (1 μM) at rt for 2 h. The reaction was then terminated with a buffer containing the known proteasome inhibitor ixazomib at a concentration of 6.7 uM. The reaction buffer was 20 mM Hepes pH 7.4, 0.01% bovine serum albumin, 0.015% SDS, 0.5 mM EDTA, 1%0/DMSO. The peptide cleavage reaction product was quantified on a Caliper LabChip 3000. Percent inhibition was calculated for each compound dilution and the concentration that produced 50% inhibition was calculated. This value is presented as the IC50.

Molecules are shown by their SMILES.

In the case of `C=CC(=O)N1CCC[C@@H]1COC(=O)N[C@@H](Cc1ccc(C)cc1)B(O)O` [Example 19, ((R)-1-(((((R)-1-acryloylpyrrolidin-2-yl)methoxy)carbonyl)amino)-2-(p-tolyl)ethyl)boronic acid], the IC50 – broadly, the concentration needed to halve the response being measured – was 60 nM in assay [1], 3260 nM in assay [2] and over 5000 nM in assay [3].

Take `CC(C)(C=C(C#N)C(=O)N1CCC[C@@H]1COC(=O)N[C@@H](Cc1ccccc1)B(O)O)N1CCCCC1` [Example 20, ((R)-1-(((((R)-1-(2-cyano-4-methyl-4-(piperidin-1l-yl)pent-2-enoyl)pyrrolidin-2-yl)methoxy)carbonyl)amino)-2-phenylethyl)boronic acid]: the figures for the IC50 in assay [1], in assay [2] and in assay [3] were 3.6 nM, 4540 nM and over 5000 nM, respectively.

Regarding `CC(C)(C=C(C#N)C(=O)N1CCC[C@@H]1COC(=O)N[C@@H](Cc1ccccc1)B(O)O)N1CCC(F)(F)CC1` [Example 21, ((R)-1-(((((R)-1-(2-cyano-4-(4,4-difluoropiperidin-1-yl)-4-methylpent-2-enoyl)pyrrolidin-2-yl)methoxy)carbonyl)amino)-2-phenylethyl)boronic acid], the results for the IC50 in assay [1], in assay [2] and in assay [3] were 1.4 nM, 1940 nM and 4780 nM, respectively.

For the compound `CC(C)(C)C=C(C#N)C(=O)N1C[C@H]2C[C@H]2[C@H]1COC(=O)N[C@@H](Cc1ccccc1)B(O)O` [Example 22, ((R)-1-(((((1R,2S,5S)-3-(2-cyano-4,4-dimethylpent-2-enoyl)-3-azabicyclo[3.1.0]hexan-2-yl)methoxy)carbonyl)amino)-2-phenylethyl)boronic acid], the values for the half-inhibitory concentration (IC50) in assay [1], in assay [2] and in assay [3] were 1.8 nM, over 5000 nM and over 5000 nM, respectively.

On to `CC(C)(C=C(C#N)C(=O)N1CCC[C@@H]1COC(=O)N[C@@H](Cc1ccccc1)B(O)O)N1CCOCC1` [Example 23, ((R)-1-(((((R)-1-(2-cyano-4-methyl-4-morpholinopent-2-enoyl)pyrrolidin-2-yl)methoxy)carbonyl)amino)-2-phenylethyl)boronic acid], for which the IC50 in assay [1] is 2.6 nM; in assay [2] it was over 5000 nM; in assay [3] it was over 5000 nM.

For the compound `Cc1ccc(C[C@H](NC(=O)OC[C@H]2CCCCN2C(=O)C(C#N)=CC(C)(C)C)B(O)O)cc1` [Example 24, ((R)-1-(((((R)-1-(2-cyano-4,4-dimethylpent-2-enoyl)piperidin-2-yl)methoxy)carbonyl)amino)-2-(p-tolyl)ethyl)boronic acid], the figures for the IC50 in assay [1], in assay [2] and in assay [3] were 3.7 nM, 1390 nM and over 5000 nM, respectively.

`CC(C)(C)C=C(C#N)C(=O)N1CCCC[C@@H]1COC(=O)N[C@@H](Cc1coc2ccccc12)B(O)O` [Example 25, ((R)-2-(benzofuran-3-yl)-1-(((((R)-1-(2-cyano-4,4-dimethylpent-2-enoyl)piperidin-2-yl)methoxy)carbonyl)amino)ethyl)boronic acid]: the IC50 in assay [1] was 0.6 nM; in assay [2], 172 nM; in assay [3], over 5000 nM.

As to `CC(C)(C)C=C(C#N)C(=O)N1C[C@@H]2C[C@@H]2[C@@H]1COC(=O)N[C@@H](Cc1ccccc1)B(O)O` [Example 26], the IC50 in assay [1] is 1.2 nM; in assay [2] it was 2110 nM; in assay [3], over 5000 nM.

In the case of `CC(C)(C=C(C#N)C(=O)N1CCCC[C@@H]1COC(=O)N[C@@H](Cc1ccccc1)B(O)O)N1CCCC1` [Example 27], the concentration for half-maximal inhibition (IC50) in assay [1] is 11 nM; in assay [2], 3480 nM; in assay [3], over 5000 nM.

In the case of `CC(C)(C=C(C#N)C(=O)N1CCCC[C@@H]1COC(=O)N[C@@H](Cc1ccccc1)B(O)O)N1CCC(F)(F)C1` [Example 28, ((R)-1-(((((R)-1-(2-cyano-4-(3,3-difluoropyrrolidin-1-yl)-4-methylpent-2-enoyl)piperidin-2-yl)methoxy)carbonyl)amino)-2-phenylethyl)boronic acid], the IC50 in assay [1] was 1.5 nM; in assay [2] it was 2190 nM; in assay [3], over 5000 nM.

In the case of `CC(C)(C=C(C#N)C(=O)N1CCCC[C@@H]1COC(=O)N[C@@H](Cc1ccccc1)B(O)O)N1CCOCC1` [Example 29, ((R)-1-(((((R)-1-(2-cyano-4-methyl-4-morpholinopent-2-enoyl)piperidin-2-yl)methoxy)carbonyl)amino)-2-phenylethyl)boronic acid], the IC50 is 2.9 nM in assay [1], 3400 nM in assay [2] and over 5000 nM in assay [3].

For the compound `CC(C)(C=C(C#N)C(=O)N1CCCC[C@@H]1COC(=O)N[C@@H](Cc1ccccc1)B(O)O)N1CCCCC1` [Example 30, ((R)-1-(((((R)-1-(2-cyano-4-methyl-4-(piperidin-1-yl)pent-2-enoyl)piperidin-2-yl)methoxy)carbonyl)amino)-2-phenylethyl)boronic acid], the IC50 is 16 nM in assay [1], over 5000 nM in assay [2] and over 5000 nM in assay [3].

For the compound `CC(C)(C=C(C#N)C(=O)N1CCCC[C@@H]1COC(=O)N[C@@H](Cc1ccccc1)B(O)O)N1CCC(F)(F)CC1` [Example 31, ((R)-1-(((((R)-1-(2-cyano-4-(4,4-difluoropiperidin-1-yl)-4-methylpent-2-enoyl)piperidin-2-yl)methoxy)carbonyl)amino)-2-phenylethyl)boronic acid], the half-maximal inhibitory concentration (IC50) in assay [1] was 12 nM; in assay [2] it was 2390 nM; in assay [3], over 5000 nM.

With `Cc1ccc(C[C@H](NC(=O)OC[C@H]2CCCCCN2C(=O)C(C#N)=CC(C)(C)C)B(O)O)cc1` [Example 32, ((R)-1-(((((R)-1-(2-cyano-4,4-dimethylpent-2-enoyl)azepan-2-yl)methoxy)carbonyl)amino)-2-(p-tolyl)ethyl)boronic acid], the IC50 in assay [1] was 9.2 nM; in assay [2], 713 nM; in assay [3] it was over 5000 nM.

As to `Cc1ccc(C[C@H](NC(=O)OC[C@@H]2CCCCCN2C(=O)C(C#N)=CC(C)(C)C)B(O)O)cc1` [Example 33, ((R)-1-(((((S)-1-(2-cyano-4,4-dimethylpent-2-enoyl)azepan-2-yl)methoxy)carbonyl)amino)-2-(p-tolyl)ethyl)boronic acid], the IC50 was 41 nM in assay [1], over 5000 nM in assay [2] and over 5000 nM in assay [3].

Take `CC(C)(C=C(C#N)C(=O)N1CCC[C@@H]1COC(=O)N[C@@H](Cc1ccccc1)B(O)O)N1CCCC1` [Example 34, ((R)-1-(((((R)-1-(2-cyano-4-methyl-4-(pyrrolidin-1-yl)pent-2-enoyl)pyrrolidin-2-yl)methoxy)carbonyl)amino)-2-phenylethyl)boronic acid]: the IC50 in assay [1] was 14 nM; in assay [2] it was 3370 nM; in assay [3], over 5000 nM.

On to `CC(C)(C=C(C#N)C(=O)N1CCC[C@@H]1COC(=O)N[C@@H](Cc1ccccc1)B(O)O)N1CCC(F)(F)C1` [Example 35, ((R)-1-(((((R)-1-(2-cyano-4-(3,3-difluoropyrrolidin-1-yl)-4-methylpent-2-enoyl)pyrrolidin-2-yl)methoxy)carbonyl)amino)-2-phenylethyl)boronic acid], for which the 50% inhibitory concentration (IC50) in assay [1] is 2 nM; in assay [2], 3020 nM; in assay [3], over 5000 nM.

For the compound `C=CC(=O)N1CCC[C@@H]1COC(=O)N[C@@H](Cc1coc2ccccc12)B(O)O` [Example 36, ((R)-1-(((((R)-1-acryloylpyrrolidin-2-yl)methoxy)carbonyl)amino)-2-(benzofuran-3-yl)ethyl)boronic acid], the results for the IC50 in assay [1], in assay [2] and in assay [3] were 6.9 nM, 397 nM and over 5000 nM, respectively.
